From ChEMBL document CHEMBL5518227, “Discovery of JNJ-1802, a First-in-Class Pan-Serotype Dengue Virus NS4B Inhibitor” (J Med Chem, 2024)

Assays:
dengue virus type 2 = experiment: Antiviral activity against DENV-2 16681 expressing eGFP infected in african green monkey Vero cells incubated with cells for 24 hrs followed by viral infection measured after 3 days by laser microscopic analysis; format: functional, organism-based; conditions: Dengue virus, 16681, Vero
dengue virus type 3 = experiment: Antiviral activity against DENV-3 H87 infected in african green monkey Vero cells incubated for 24 hrs measured after 3 days post infection by RT-PCR analysis; format: functional, organism-based; conditions: Dengue virus, H87, Vero; read-out: EC50
dengue virus type 4 = experiment: Antiviral activity against DENV-4 H241 infected in african green monkey Vero cells incubated for 24 hrs measured after 3 days post infection by RT-PCR analysis; format: functional, organism-based
[1] = Metabolic stability in human liver microsomes assessed as intrinsic clearance preincubated for 5 mins followed by NADPH addition measured upto 60 mins by LC-MS/MS analysis; format: ADME, Microsome; conditions: time < 65 min, read-out: CLH
[2] = Metabolic stability in human hepatocytes assessed as intrinsic clearance measured per million cells incubated upto 120 mins by LC-MS/MS analysis; format: ADME, cell-based, Hepatocyte; conditions: read-out: CLH
[3] = Elimination half life in Sprague-Dawley rat at 2.5 mg/kg, iv measured after 24 hrs by LC-MS/MS analysis; format: ADME, organism-based; conditions: in vivo, read-out: beta t1/2 (converted)
[4] = Oral bioavailability in Sprague-Dawley rat at 10 mg/kg measured after 24 to 48 hrs by LC-MS/MS analysis; format: ADME, organism-based; conditions: in vivo, time 24-48 hrs
[5] = Thermodynamic solubility of the compound in aqueous buffer at pH 7.4 measured after 24 hrs by UPLC analysis; format: physicochemical; conditions: read-out: Therm_solubility
[6] = Metabolic stability in dog hepatocytes assessed as intrinsic clearance measured per million cells incubated upto 120 mins by LC-MS/MS analysis; format: ADME, cell-based, Canis lupus familiaris, Hepatocyte; conditions: read-out: CLH
[7] = Clearance in CD-1 mouse at 2.5 mg/kg, iv measured upto 24 hrs by LC-MS/MS analysis; format: ADME, organism-based; conditions: in vivo
[8] = Cmax in CD-1 mouse at 10 mg/kg, po measured upto 24 hrs by LC-MS/MS analysis; format: ADME, organism-based; conditions: in vivo
[9] = Clearance in overnight fasted Beagle dog at 0.51 mg/kg, iv measured upto 24 hrs by LC-MS/MS analysis; format: ADME, organism-based, Canis lupus familiaris; conditions: in vivo
[10] = Clearance in 8 hrs fasted cynomolgus monkey at 1 mg/kg, iv measured upto 24 hrs by LC-MS/MS analysis; format: ADME, organism-based, Macaca fascicularis; conditions: in vivo
[11] = Volume of distribution at steady state in 8 hrs fasted cynomolgus monkey […] at 1 mg/kg, iv measured upto 24 hrs by LC-MS/MS analysis; format: ADME, organism-based, Macaca fascicularis; conditions: in vivo, read-out: Vdss
[12] = Elimination half life in 8 hrs fasted cynomolgus monkey assessed as liver blood flow at 1 mg/kg, iv measured upto 24 hrs by LC-MS/MS analysis; format: ADME, organism-based, Macaca fascicularis; conditions: in vivo, read-out: beta t1/2 (converted)
[13] = AUC in 8 hrs fasted cynomolgus monkey assessed as liver blood flow at 3 mg/kg, po measured upto 24 hrs by LC-MS/MS analysis; format: ADME, organism-based, Macaca fascicularis; conditions: in vivo
[14] = Plasma protein binding in human at 5 uM measured after 24 hrs by LC-MS/MS analysis; format: ADME, cell-free; conditions: read-out: PPB (converted)
[15] = Mutagenicity in Salmonella typhimurium TA7001 in presence or absence of S9 fraction pretreated for 90 mins measured after 48 hrs in dark by AMES test; format: toxicity; conditions: salmonella enterica subsp. enterica serovar typhimurium, s9, 49.5 h; time 2970 min
mouse P-gp = experiment: Efflux ratio of permeability from basolateral to apical side over apical to basolateral side in pig LLC-PK1 cells transfected with mouse P-gp at 1 uM measured upto 120 mins; format: ADME, cell-based, Sus scrofa
[16] = Mutagenicity in Salmonella typhimurium TA98 in presence or absence of S9 fraction pretreated for 90 mins measured after 48 hrs in dark by AMES test; format: toxicity; conditions: salmonella enterica subsp. enterica serovar typhimurium, s9, 49.5 h; time 2970 min
[17] = Mutagenicity in Salmonella typhimurium TA7002 in presence or absence of S9 fraction pretreated for 90 mins measured after 48 hrs in dark by AMES test; format: toxicity; conditions: salmonella enterica subsp. enterica serovar typhimurium, s9, 49.5 h; time 2970 min
[18] = Mutagenicity in Salmonella typhimurium TA7003 in presence or absence of S9 fraction pretreated for 90 mins measured after 48 hrs in dark by AMES test; format: toxicity; conditions: salmonella enterica subsp. enterica serovar typhimurium, s9, 49.5 h; time 2970 min
[19] = Cytotoxicity against african green monkey Vero cells by ATPlite cell viability luminescence assay; format: toxicity, cell-based; conditions: chlorocebus sabaeus
Cytochrome P450 1A2 = molecular target: T1, Cytochrome P450 1A2 (Homo sapiens, UniProt P05177); experiment: Inhibition of human CYP1A2 preincubated for 5 mins followed by NADPH addition measured after 5 to 30 mins by LC-MS analysis; format: ADME
T1 sequence (P05177 whole entry): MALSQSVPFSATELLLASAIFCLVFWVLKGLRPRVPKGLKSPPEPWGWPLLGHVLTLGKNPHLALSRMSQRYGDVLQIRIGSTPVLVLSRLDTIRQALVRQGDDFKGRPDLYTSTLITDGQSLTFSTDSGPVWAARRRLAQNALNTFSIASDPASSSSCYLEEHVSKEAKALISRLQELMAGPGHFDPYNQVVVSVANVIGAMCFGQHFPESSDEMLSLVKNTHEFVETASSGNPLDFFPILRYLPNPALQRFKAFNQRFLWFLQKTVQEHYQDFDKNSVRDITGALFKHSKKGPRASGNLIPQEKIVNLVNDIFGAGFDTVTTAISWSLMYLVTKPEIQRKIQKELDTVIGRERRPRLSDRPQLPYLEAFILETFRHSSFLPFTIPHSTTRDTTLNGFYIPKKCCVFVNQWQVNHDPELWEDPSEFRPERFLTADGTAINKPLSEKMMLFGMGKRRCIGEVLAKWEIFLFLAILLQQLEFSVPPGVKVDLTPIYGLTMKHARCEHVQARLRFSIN

Cytochrome P450 2C8 = molecular target: T2, Cytochrome P450 2C8 (Homo sapiens, UniProt P10632); experiment: Inhibition of human CYP2C8 preincubated for 5 mins followed by NADPH addition measured after 5 to 30 mins by LC-MS analysis; format: ADME
T2 sequence (P10632 whole entry): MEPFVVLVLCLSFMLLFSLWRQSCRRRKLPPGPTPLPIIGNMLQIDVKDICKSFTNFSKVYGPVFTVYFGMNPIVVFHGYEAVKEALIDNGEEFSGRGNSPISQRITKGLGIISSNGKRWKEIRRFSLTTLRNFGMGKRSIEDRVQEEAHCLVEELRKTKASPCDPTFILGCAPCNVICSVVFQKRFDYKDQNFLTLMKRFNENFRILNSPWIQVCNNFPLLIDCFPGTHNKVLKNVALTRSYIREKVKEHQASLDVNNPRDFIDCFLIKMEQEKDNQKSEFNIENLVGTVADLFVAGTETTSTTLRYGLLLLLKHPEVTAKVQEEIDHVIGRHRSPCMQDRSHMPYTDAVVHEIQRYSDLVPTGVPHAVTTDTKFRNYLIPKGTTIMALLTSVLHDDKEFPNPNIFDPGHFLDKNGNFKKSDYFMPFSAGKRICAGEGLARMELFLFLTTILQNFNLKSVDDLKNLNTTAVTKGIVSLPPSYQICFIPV

Cytochrome P450 2C9 = Cytochrome P450 2C9 (Homo sapiens, UniProt P11712); experiment: Inhibition of human CYP2C9 preincubated for 5 mins followed by NADPH addition measured after 5 to 30 mins by LC-MS analysis; format: ADME
Cytochrome P450 2C19 = Cytochrome P450 2C19 (Homo sapiens, UniProt P33261); experiment: Inhibition of human CYP2C19 preincubated for 5 mins followed by NADPH addition measured after 5 to 30 mins by LC-MS analysis; format: ADME
Sequence of Cytochrome P450 2C19 (P33261 whole entry): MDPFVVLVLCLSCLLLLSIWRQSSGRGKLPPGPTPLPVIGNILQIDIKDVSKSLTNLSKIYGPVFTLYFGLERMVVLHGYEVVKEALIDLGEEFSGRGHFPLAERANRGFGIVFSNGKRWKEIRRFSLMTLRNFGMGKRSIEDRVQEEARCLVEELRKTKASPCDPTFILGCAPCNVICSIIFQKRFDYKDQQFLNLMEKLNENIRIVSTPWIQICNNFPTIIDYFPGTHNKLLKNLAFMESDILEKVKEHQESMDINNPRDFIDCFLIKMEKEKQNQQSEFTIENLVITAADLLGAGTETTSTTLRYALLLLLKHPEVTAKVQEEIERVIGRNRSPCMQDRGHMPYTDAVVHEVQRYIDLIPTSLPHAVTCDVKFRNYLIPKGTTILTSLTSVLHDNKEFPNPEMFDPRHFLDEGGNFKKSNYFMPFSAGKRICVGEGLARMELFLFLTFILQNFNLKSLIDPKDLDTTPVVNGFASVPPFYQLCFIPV

Sequence of Cytochrome P450 2C9 (P11712 whole entry): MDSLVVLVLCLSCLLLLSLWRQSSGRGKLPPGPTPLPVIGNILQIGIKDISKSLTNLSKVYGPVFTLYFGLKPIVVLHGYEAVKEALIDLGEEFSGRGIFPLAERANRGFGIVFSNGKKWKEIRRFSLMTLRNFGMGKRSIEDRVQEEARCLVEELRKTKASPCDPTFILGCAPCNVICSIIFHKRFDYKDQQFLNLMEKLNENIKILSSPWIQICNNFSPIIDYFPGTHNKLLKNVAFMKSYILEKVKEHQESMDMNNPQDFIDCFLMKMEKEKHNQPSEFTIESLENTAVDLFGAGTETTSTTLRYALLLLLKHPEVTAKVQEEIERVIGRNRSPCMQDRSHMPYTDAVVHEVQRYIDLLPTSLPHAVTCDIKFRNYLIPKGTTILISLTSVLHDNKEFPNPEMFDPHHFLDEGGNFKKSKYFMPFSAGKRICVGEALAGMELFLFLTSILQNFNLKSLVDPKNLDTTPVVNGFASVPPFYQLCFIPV

Q: Which results are given for COc1cc(N[C@H](C(=O)c2c[nH]c3ccc(OC(F)(F)F)cc23)c2ccc(Cl)cc2OC)cc(S(C)(=O)=O)c1 [MOSNODENVIR]?
A: EC50 (dengue virus type 2): 0.057 nM; EC50 (dengue virus type 3): 2 nM; EC50 (dengue virus type 4): 11 nM; microsomal CLint [1]: < 8 µL/min/mg; hepatocyte CLint [2]: < 1.9 µL/min/1e6 cells; half-life [3]: 12.4 h; bioavailability [4]: 58%; solubility thermodynamic at 24 h [5]: < 1 µg/mL; hepatocyte CLint [6]: 5.7 µL/min/1e6 cells; clearance [7]: 4.97 mL/min/kg; Cmax [8]: 2730 ng/mL; clearance [9]: 6.4 mL/min/kg; clearance [10]: 2.45 mL/min/kg; Vd [11]: 1.64 L/kg; half-life [12]: 9.57 h; AUC at 24 h [13]: 8970 ng·h/mL; fraction unbound at 24 h, 5 µM [14]: 0.0014; Activity [15]: Non-Toxic; efflux ratio at 2 h, 1 µM (mouse P-gp): ~4; Activity [16]: Non-Toxic; Activity [17]: Non-Toxic; Activity [18]: Non-Toxic; CC50 [19]: 2600 nM; IC50 (Cytochrome P450 1A2): > 30000 nM; IC50 (Cytochrome P450 2C8): 7400 nM; IC50 (Cytochrome P450 2C9): 3700 nM; IC50 (Cytochrome P450 2C19): 10300 nM
